The values that follow come from patent US11426367B2, “Methods of treating substance abuse” (Perception Neuroscience, Inc., priority 2018, dated 2022).

SMILES strings stand for the structures.

The subject of assay [1] is rewarding effects of morphine. Kind of assay: Morphine-induced conditioned place preference. Format: in vivo, mice. As to conditions: for Morphine CPP, dose blocking the rewarding effects of morphine: Table 11, Present study. How it is done:
The methods for conditioned place preference and evaluation of R-ketamine were conducted using the general methods of Suzuki et al. (2000). The general design was to dose mice with either saline+saline, saline+morphine, or R-ketamine+morphine and evaluate their preference for the morphine-associated place.
Male ddY mice (20-23 g) were obtained from Tokyo Experimental Animals Inc. (Tokyo, Japan). The ddY mice were bred in a closed colony. The mice were housed at a temperature of 22 f 1° C. with a 12-h light-dark cycle (light on 8:30 a.m. to 8:30 p.m.). Food and water were available ad libitum.
Place conditioning was conducted as described previously, using a minor modification of a biased procedure according to Suzuki et al. (2000). The apparatus consisted of a shuttlebox (15×30×15 cm: w×l×h) made of an acryl-resin board. The box was divided into two compartments of equal size by means of a sliding partition. One compartment was white with a textured floor; the other was black with a smooth floor. For conditioning mice were immediately conditioned to the white compartment following drug injection and to the black compartment following vehicle injection.
Conditioning sessions were conducted once daily for 6 consecutive days. […] Preference for a particular place was assessed in the drug-free state after placing the animals on the neutral platform and allowing them free access to both compartments. The time spent in each compartment during a 900-sec session was then measured automatically in a blinded fashion by two infrared beam sensors (KN-80, Natsume Seisakusyo, Tokyo, Japan) on the covers (3 cm from the center and the side) of the white and black compartments. […]
Conditioning scores represent the time spent in the drug-paired place minus the time spent in the vehicle-paired place, and are expressed as the mean±S.E.M. Behavioral data were evaluated statistically with a one-way analysis of variance (ANOVA) followed by Dunnett's test to determine whether individual doses produced significant conditioning.

Assay [2] relates to dopamine release in the striatum. As to conditions: imaging studies in nonhuman primates; Hashimoto et al., 2017; cited from earlier work.
Assay [3] has as its system social defeat stress mice. Briefly: Locomotion test (LMT), social defeat stress model. In kind it is in vivo. As to conditions: 10 mg/kg i.p., 2 days after injection. How it is done: (§1) A social defeat stress model of depression was prepared by bringing C57/B6 male mice into contact with ICR male mice (large aggressive mice) for 10 consecutive days to apply a stress called a “social defeat stress” in accordance with the previous report (Non Patent Literature 19). […] Specifically, an increase in immobility time was found in each of a tail suspension test (TST) and a forced swimming test (FST).
The preparation of the animal model of depression and the administration of the agent were specifically performed as described below (FIG. 3A). Male C57/B6 mice (7-week-old, Japan SLC, Inc., Hamamatsu, Japan) and ICR mice (9-week-old, Japan SLC, Inc., Hamamatsu, Japan) were used. […]
The antidepressant effects of the agent were investigated by behavioral tests such as the TST, the PST, the LMT, and a 1% sucrose preference test (SPT) (FIG. 3A). […] The immobility time of each mouse was recorded for 10 minutes. […] The immobility time was calculated as a value obtained by subtracting active time from total time, using the analysis software of the apparatus. Cumulative immobility time was recorded over 6 minutes during a test period. […] The locomotor activity of the mice was counted with SCANET MV-40, and the cumulative exercise of the mice was recorded for 60 minutes. […] A spine density was quantitatively evaluated by observation with a KEYENCE microscope (BZ-9000, Osaka, Japan).

Assay [4] has as its system social defeat stress mice. Briefly: Tail suspension test (TST), social defeat stress model. In kind it is in vivo. Particulars: 10 mg/kg i.p. How it is done:
as §1
The preparation of the animal model of depression and the administration of the agent were specifically performed as described below (FIG. 3A). Male C57/B6 mice (7-week-old, Japan SLC, Inc., Hamamatsu, Japan) and ICR mice (9-week-old, Japan SLC, Inc., Hamamatsu, Japan) were used. The mice were given free access to water and feed. A social defeat stress was applied by housing one C57/B6 mouse with one ICR mouse for 10 days.
The antidepressant effects of the agent were investigated by behavioral tests such as the TST, the PST, the LMT, and a 1% sucrose preference test (SPT) (FIG. 3A). The 1% sucrose preference test (SPT) was performed on 1 day and 6 days after the injection of ketamine. Each of the TST and the PST was performed on 2 days and 7 days after the injection of ketamine. The TST was performed as described below. First, the mice were taken out from cages, and then a small piece of an adhesive tape was bonded onto a portion approximately 2 cm away from the tip of the tail of the mice. A small hole was opened in the small piece, and the mice were each fixed upside down on a hook through the small hole. The immobility time of each mouse was recorded for 10 minutes. Mice were considered immobile only when they hung passively and completely motionless. The immobility time increases in a depressive state. The PST was performed as described below. First, the mice were placed individually in a cylinder (diameter: 23 cm; height: 31 cm) containing 15 cm of water, maintained at 22 to 24 deg C. The mice were tested in an automated forced-swimming apparatus using SCANET MV-40 ([…] Co., Ltd., Toyama, Japan). The immobility time was calculated as a value obtained by subtracting active time from total time, using the analysis software of the apparatus. Cumulative immobility time was recorded over 6 minutes during a test period. The LMT was performed as described below. First, the mice were placed in experimental cages (length×width×height: 560×560×330 mm). The locomotor activity of the mice was counted with SCANET MV-40, and the cumulative exercise of the mice was recorded for 60 minutes. The cages were cleaned between testing session. The immobility time increases in a depressive state. […] A spine density was quantitatively evaluated by observation with a KEYENCE microscope (BZ-9000, Osaka, Japan).

As to `CN[C@@]1(c2ccccc2Cl)CCCCC1=O.Cl` [R(−)-ketamine], in assay [1] (10 mg/kg i.p. co-dosed with morphine 5 mg/kg i.p., F(2,29)=2.2, p=0.064), the “conditioned place preference induced by morphine” value is on record as “trend toward significant attenuation”. In assay [1], the “Morphine CPP, dose blocking the rewarding effects of morphine” value is reported as 10 mg/kg. In assay [2], the “dopamine release in the striatum” value is on record as “not”. Further, the “locomotion in the LMT” value in assay [3] was “no difference in locomotion”. Moreover, the results for the “immobility time in the TST” value in assay [4] (2 days after injection) and in assay [4] (7 days after injection) were “markedly reduced the immobility time” and “significantly reduced the immobility time”, respectively.

In the case of `CN[C@]1(c2ccccc2Cl)CCCCC1=O` [S(+)-ketamine], the “Morphine CPP, dose blocking the rewarding effects of morphine” value in assay [1] is recorded as 10 mg/kg. Moreover, the “dopamine release in the striatum” value in assay [2] is listed as “increases dopamine release in the striatum”. In addition, the “locomotion in the LMT” value in assay [3] is on record as “no difference in locomotion”. Also, the “immobility time in the TST” value is “markedly reduced the immobility time” in assay [4] (2 days after injection) and “significantly reduced the immobility time” in assay [4] (7 days after injection).
